Reference: patent US6812377B2, “Genetic engineering of syringyl-enriched lignin in plants” (Board of Control of Michigan Technological University, priority 2000, dated 2004)

Assays:
[1] = system: PtSAD recombinant protein; test: SAD enzyme activity assay, single and mixed substrates (HPLC-MS); type: biochemical, Populus tremuloides; settings: mixture of coniferaldehyde and sinapaldehyde, pH 7.0
Experimental: After 10 min at 30° C., the reaction was terminated and extracted with 0.5 ml ethyl acetate. The extraction was repeated 4 times and the combined ethyl acetate was evaporated and dissolved in the HPLC mobile phase for LC-MS identification and quantitation of the reaction products as we did before (Osakabe et al., 1999; Li et al. 2000). […] The SAD reactions with mixed substrates, sinapaldehyde and coniferyl aldehyde, were therefore conducted at the optimal pH 7.0 under above-described conditions. […] To characterize the enzyme pH optima, the substrate and recombinant PtCAD or PtSAD protein concentrations described above were used in sodium phosphate buffers, pH 5 to 8.5. All reactions were for 10 minutes at 30° C. An aliquot of 100 μL of reaction mixture was injected directly onto a Supelcosil LC-ABZ column (15 cm×4.6 mm×5 μm; Supelco, Bellefonte, Pa.) with automatic sample injection and separated isocratically with a Hewlett-Packard (HP) 1100 liquid chromatography system at 40° C. and a flow rate of 0.25 mL/min. […] The reaction products were identified and confirmed by comparing the ion fragmentation patterns of the product and the authentic standard in MS scanning mode at 70 V. The product quantity and Km, Vmax, kcat, and apparent inhibition constant (Ki) values (means±SE) were determined as described (Osakabe et al., 1999; Li et al., 2000). The results of the inhibition kinetics for both the CAD enzyme (i.e. Table 2) and the SAD enzyme (i.e., Table 3) using a variety of substrates are illustrated below.

[2] = molecular target: T1, PtCAD (recombinant coniferyl alcohol dehydrogenase, GenBank AF217957, C-terminal His tag, expressed in E. coli BL21(DE3)) (Populus tremuloides, UniProt Q9M632); test: Inhibition kinetics of PtCAD: PtCAD-mediated reduction of sinapaldehyde in the presence of coniferaldehyde, HPLC-UV/MS (FIG. 6); type: biochemical, Populus tremuloides (quaking aspen); settings: coniferaldehyde (1 to 5 μM) as inhibitor of PtCAD-mediated reduction of sinapaldehyde (1 to 200 μM); 500 μM NADPH; 1.2 μg purified recombinant PtCAD; pH 8.0; 4 min; 30° C.; read-out: apparent inhibition constant (Ki)
T1 sequence (Q9M632 1-357): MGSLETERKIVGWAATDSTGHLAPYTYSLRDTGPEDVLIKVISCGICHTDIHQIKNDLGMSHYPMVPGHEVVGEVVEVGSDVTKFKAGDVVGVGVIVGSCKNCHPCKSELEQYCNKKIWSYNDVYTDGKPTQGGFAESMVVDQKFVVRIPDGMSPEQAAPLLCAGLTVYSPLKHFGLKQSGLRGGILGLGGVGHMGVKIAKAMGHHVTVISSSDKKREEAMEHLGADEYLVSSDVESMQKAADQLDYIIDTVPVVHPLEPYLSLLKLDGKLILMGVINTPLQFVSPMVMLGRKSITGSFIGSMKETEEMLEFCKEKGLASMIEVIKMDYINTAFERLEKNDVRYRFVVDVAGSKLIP
Excerpt: FIG. 6 illustrates inhibition kinetics of PtCAD and PtSAD;
A guaiacyl pathway gene encoding coniferyl alcohol dehydrogenase (CAD, FIG. 1) from Populus tremuloides (GenBank #AF217957) was first cloned. This cDNA was designated as PtCAD (GenBank #AF217957). E. coli-expressed recombinant PtCAD protein was characterized for its catalytic activity with coniferaldehyde and sinapaldehyde. Because monolignol biosynthetic pathway intermediates are present together in lignifying tissues (Osakabe et al., 1999; Li et al. 2000), the PtCAD enzyme activity with a mixture of coniferaldehyde and sinapaldehyde was assayed. As shown in FIG. 5 (a) and (c), the reaction mixture was separated by HPLC after the enzyme reaction. […] Thus, PtCAD has a specific catalytic reaction function with coniferaldehyde for the biosynthesis of guaiacyl monolignol, coniferyl alcohol (FIG. 1). […]
For normal and inhibition kinetic analyses, the reaction time was 4 min and pH was 8.0 for PtCAD (1.2 μg of purified recombinant protein) and 7.0 for PtSAD (0.1 μg). […] All reactions were terminated by the addition of 10 μL of 6 N HCI (to bring the pH to 2) and 500 ng of internal standard o-coumaric acid and analyzed by HPLC-UV/MS. […]

Q: COc1cc(/C=C/C=O)ccc1O [Coniferaldehyde] was tested. Which “reaction of PtSAD with the substrate in a mixture” value [1] did it give?
A: would not react

Q: What about the Ki [2] of the same compound?
A: 1700 nM
